Results reported in ChEMBL document CHEMBL3137667, “[Drug-induced liver injury; fourteenth updated edition of the bibliographic database of liver injuries and related drugs]” (Gastroenterol Clin Biol, 2004).

Columns and labels:
[1] = Highest frequency of moderate liver toxicity observed during clinical trials, expressed as a percentage. [column '% BIOL' in source]; details: human
[2] = Highest frequency of acute liver toxicity observed during clinical trials, expressed as a percentage. [column '% AIGUE' in source]; details: human
[3] = Comments (NB not yet translated). [column 'COMMENTAIRES' in source]; details: human
[4] = human, serum
[5] = human, serum; remark: listed apart in the source
[6] = human
[7] = human; remark: listed apart in the source
[8] = human; remark: listed apart in the source
[9] = human, serum, 4383 h
[10] = human; remark: listed apart in the source
[11] = human; remark: listed apart in the source
[12] = human; remark: listed apart in the source
[13] = human; remark: listed apart in the source
[14] = human; remark: listed apart in the source
[15] = human; remark: listed apart in the source
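For Hepatotoxicity (association with vascular disease) in this document: count of indexed literature references reporting vascular liver injury in humans, e.g. peliosis hepatitis, hepatic veno-occlusive disease or Budd-Chiari syndrome.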
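For Hepatotoxicity (benign tumour) in this document: value is a count of indexed literature references citing a benign tumour confirmed by histopathology.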
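For Hepatotoxicity (choleostasis) in this document: human cholestatic liver injury, shown by histopathology or by peak ALT or AST elevation over alkaline phosphatase ratio below 2, value counts indexed literature reports.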
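For Hepatotoxicity (chronic liver disease) in this document: chronic liver injury confirmed by histopathology or persistently raised serum aminotransferase activity beyond 6 months, value given as the count of indexed literature references.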
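For Hepatotoxicity (cirrhosis) in this document: value is a count of indexed literature references reporting cirrhosis confirmed by histopathology.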
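For Hepatotoxicity (cytolytic) in this document: human cytolytic liver injury, shown by histopathology or by a ratio above 5 of peak ALT or AST elevation to alkaline phosphatase elevation, value counts indexed references.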
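For Hepatotoxicity (granulomatous hepatitis) in this document: value is a count of indexed literature references reporting granulomatous liver disease confirmed by histopathology.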
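For Hepatotoxicity (malignant tumour) in this document: malignant tumour confirmed by histopathology, value gives the count of indexed literature references reporting it.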
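For Hepatotoxicity (severe hepatitis) in this document: human clinical data: severe hepatitis, meaning potentially life-threatening liver failure or clinically observed cases, the value counts how many indexed literature references report it.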
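For Hepatotoxicity (steatosis) in this document: steatosis confirmed by histopathology, value is the count of indexed references.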

Row | SMILES | Hepatotoxicity (moderate) [1] | Hepatotoxicity (acute) [2] | Hepatotoxicity (comment) [3] | Hepatotoxicity (moderate) [4] | Hepatotoxicity (acute) [5] | Hepatotoxicity (cytolytic) [6] | Hepatotoxicity (choleostasis) [7] | Hepatotoxicity (severe hepatitis) [8] | Hepatotoxicity (chronic liver disease) [9] | Hepatotoxicity (cirrhosis) [10] | Hepatotoxicity (granulomatous hepatitis) [11] | Hepatotoxicity (association with vascular disease) [12] | Hepatotoxicity (steatosis) [13] | Hepatotoxicity (malignant tumour) [14] | Hepatotoxicity (benign tumour) [15]
1 | CC(C)[C@@H]1NC(=O)[C@H](CCCCN)NC(=O)[C@@H](Cc2c[nH]c3ccccc23)NC(=O)[C@H](Cc2ccc(O)cc2)NC(=O)[C@@H](NC(=O)[C@H](N)Cc2ccc3ccccc3c2)CSSC[C@@H](C(=O)N[C@H](C(N)=O)[C@@H](C)O)NC1=O [LANREOTIDE] | 0% | 0% | BOUE_BILIAIRE LITHIASE_VESICULAIRE ENCEPHALOPATHIE | 0 | 0 | 0 | 0 | 0 | 0 | 0 | 0 | 0 | 0 | 0 | 0
2 | O=C1Nc2ccc(Cl)cc2C(c2ccccc2Cl)=NC1O (stereo not given) [LORAZEPAM] | 0% | 0% | I/PYRIMETHAMINE | 1 | 1 | 0 | 0 | 0 | 0 | 0 | 0 | 0 | 0 | 0 | 0
3 | CC1=C(C/C=C(\C)CCC[C@H](C)CCC[C@H](C)CCCC(C)C)C(=O)c2ccccc2C1=O [PHYTONADIONE] | 0% | 0% | ICTERE_NEONATAL | 0 | 5 | 0 | 0 | 0 | 0 | 0 | 0 | 0 | 0 | 0 | 0
4 | COc1cc([C@@H]2c3cc4c(cc3[C@@H](O[C@@H]3O[C@@H]5CO[C@@H](c6cccs6)O[C@H]5[C@H](O)[C@H]3O)[C@H]3COC(=O)[C@H]23)OCO4)cc(OC)c1O [TENIPOSIDE] | 23.8% | 0% | HNR | 4 | 0 | 0 | 0 | 0 | 0 | 0 | 0 | 1 | 0 | 0 | 0
